These are literature values, as cited in US7807193B2 (priority 2002, dated 2010).

The conditions of series [1]: patients having adult onset diabetes, drug treatment therapy versus insulin treatment.
For the next series, the system named is ob/ob mice. Particulars: homozygous diabetic mouse model (ob/ob); U.S. application 20020037861 A1.

For `CN(C)C(=N)N=C(N)N` [metformin], the Mortality rates in series [1] is 8%. `CC1(C)O[C@@H]2[C@@H](CO[C@@]3(COS(N)(=O)=O)OC(C)(C)O[C@@H]23)O1` [topiramate, 2,3:4,5-bis-O-(1-methylethylidene)-β-D-fructopyranose sulfamate]: the “Levels of blood glucose, triglycerides, insulin and glycosylated hemoglobin versus control ob/ob mice not given topiramate” value in the series with ob/ob mice is reported as “significantly lower”.
